Results reported in patent publication US20220218725A1, “METHODS AND MATERIALS FOR TREATING CANCER” (Mayo Foundation for Medical Education and Research, priority 2019, published 2022).

System: JeKo-1 cells
Experiment: Cell viability, Annexin V/PI assay (also IC50 and combination index)
Format: cell-based
Method: To assess apoptosis and cellular proliferation, all cell lines were treated with CRM 1 inhibitors (concentration ranging from 0.05-2 μM) and salicylates at concentrations ranging from (0.001-10 mM) for 48 hours before analysis was performed. DMSO was used to substitute the drug in controls.
After 48 hours incubation, cells were washed with Annexin buffer solution and stained with both propidium iodide (PI) and FITC-Annexin V (Life Technologies), and assayed on a BD Accuri flow cytometer (BD Biosciences). Apoptosis results were analyzed with BD CellQuest software. For cell cycle analysis, Jeko-1 cell line was intubated with CRM 1 inhibitors (concentrations ranging from […]) and salicylates (concentration at 3 mM) and Ly-1 cell line was intubated with CRM 1 inhibitors (concentrations ranging from 0.1-2.0 μM) and salicylates (concentration at 0.5-5 mM) for 24 and 48 hours and then fixed with 95% cold ethanol and kept at 4 C° for 24 h and subsequently underwent cell cycle analysis after PI staining and analysis was performed using BD FACS caliber flow cytometer (BD Biosciences) and FlowJo software (Tree Star).
Cell lines were purchased from the cell line repositories ATCC (Manassas, Va.) or DSMZ (Braunschweig, Germany). These included MCL cell lines: JeKo-1, Mino; TCL cell lines: Karpas-299, SR-786; DLBCL cell lines: OCI-Ly1 (LY-1), OCI-Ly3 (LY-3), OCI-Ly19 (LY-19), SU-DHL-6 (DHL-6); MM cell lines: RPMI, U266, OPM2, Xgl, KMS2; ALL cell lines: CRL-1783; non-small cell lung cancer: NCI-H460, A549, HCC827; small cell lung cancer: H1048; sarcoma: Fuji, SW872. Cell lines were cultured according to instruction.
KPT-330 purchased from Selleckchem (cat no: S7252) was dissolved in DMSO while CS (Santa Cruz, Calif.S 2016-36-6), sodium salicylate (Sigma-Aldrich, cat no: S3007), acetyl salicylate (Sigma-Aldrich, cat no: CAS 50-78-2) was diluted in PBS. Ketorolac (Sigma-Aldrich, cat no: 1356665), Bortezomib (Selleckchem, cat no: S1013), gemcitabine (Sigma-Aldrich, cat no: G6423), Leptomycin-B (Sigma-Aldrich, cat no: L2913-2X) and KPT-185 (Selleckchem, cat no: S7125) were dissolved in DMSO. The concentration range of KPT-330 was 0.05-1.0 μM while CS was 1-3 mM were used for ex vivo treatment and incubation time ranged from 24 hours to 72 hours. For the PARP inhibitor assay, olaparib 10 μM (SelleckChem, cat no: AZD2281 Ku-0059436) was used.
The viability assessment for cell lines and primary patients samples were conducted with the Annexin V/PI method.
Jeko-1 and OCI-Ly1 cell lines were used to assess the IC50. Keeping CS at 3 mM, KPT-330 was titrated. Relative IC50 was calculated as described elsewhere (see, e.g., Sebaugh et al., Pharmaceutical statistics 10:128-134 (2011)). The combination index was calculated as described elsewhere (see, e.g., Chou et al., Cancer Res 70:440-446 (2010)).

Cc1cn([C@H]2C[C@H](O)[C@@H](CO)O2)c(=O)[nH]c1=O [thymidine]
cell viability after K+CS treatment with exogenous thymidine (JeKo-1 in thymidine-free media, 0.5 μM KPT-330, 3 mM CS, 10 μM thymidine, 48 hours): statistically significant increase in cell viability

CC(C)[C@H](NC(=O)c1ccc2ccccc2n1)C(=O)N[C@@H](CC(=O)O)C(=O)COc1c(F)cccc1F [Q-VD-OPh]
effect of pan-caspase inhibitor on K+CS induced cell death (JeKo-1, 48 hours, KPT-330 0.5 μM and CS 3 mM): rescued cells from K+CS induced cell death

O=C(c1cc(Cc2n[nH]c(=O)c3ccccc23)ccc1F)N1CCN(C(=O)C2CC2)CC1 [Olaparib, olaparib]
antitumor activity with PARP inhibitor (JeKo-1, olaparib 10 μM, KPT-330 0.5 μM, CS 3 mM, 48 h, AnnexinV/PI): did not have any antitumor activity
